Reference: patent US11130741B2 (Bioimics AB, priority 2016, dated 2021)
Values after ≈ are worked out from the molar mass of the structure shown. Counter-ions that a name gives are not always drawn. Like-named read-outs stand apart in the source and are kept apart here.

Key:
[1] = system: Escherichia coli (ATCC25922); experiment: MIC, broth microdilution (CLSI), Escherichia coli ATCC25922
[2] = system: Staphylococcus aureus (ATCC25923); experiment: MIC, broth microdilution (CLSI), Staphylococcus aureus ATCC25923
[3] = system: E. coli RNase P RNA, M1 RNA; experiment: Inhibition of bacterial RNase P activity, IC50 determination (cleavage of pATSerUG by M1 RNA); format: biochemical; conditions: NI = No inhibition
[4] = system: Staphylococcus aureus subsp. aureus (ATCC29213); experiment: MIC, broth microdilution (CLSI), Staphylococcus aureus subsp. aureus ATCC29213; format: cell-based; conditions: ATCC29213, Table 15, read-out: S. aureus ("wound") (MIC)
[5] = ATCC25922, read-out: E. coli MIC, Table 15, NI = No inhibition
[6] = ATCC25923, read-out: S. aureus ("Clinical") MIC
[7] = ATCC25922, read-out: E. coli MIC
[8] = ATCC25923, read-out: S. aureus ("Clinical") MIC, Table 15

SMILES | MIC [1, 5] [µg/mL] | MIC [2, 6] [µg/mL] | IC50 [3] [µM] | also measured
NCCNCCN1CCC(Nc2cc(C(F)(F)F)cc3c2Nc2ccccc2S3)CC1 [compound 219, N1-(2-(4-((3-(trifluoromethyl)-10H-phenothiazin-1-yl)amino)piperidin-1-yl)ethyl)ethane-1,2-diamine] | 14 (≈ 31 µM) | 7 (≈ 15.5 µM) | – | –
NC(Cc1c[nH]c2ccccc12)C(=O)Nc1cc(C(F)(F)F)cc2c1Nc1ccccc1S2 (stereo not shown) [compound 253, 2-amino-3-(1H-indol-3-yl)-N-(3-(trifluoromethyl)-10H-phenothiazin-1-yl)propanamide] | – | 2 (≈ 4.27 µM) | – | –
NC1CCCC(CNc2cc(C(F)(F)F)cc3c2Nc2ccccc2O3)C1 (stereo not shown) [compound 164, N-((3-aminocyclohexyl)methyl)-3-(trifluoromethyl)-10H-phenoxazin-1-amine] | 97 (≈ 257 µM) | 24 (≈ 63.6 µM) | – | –
NCCN1CCCC(CNc2cc(C(F)(F)F)cc3c2Nc2ccccc2S3)C1 (stereo not shown) [compound 220, N-((1-(2-aminoethyl)piperidin-3-yl)methyl)-3-(trifluoromethyl)-10H-phenothiazin-1-amine] | 7 (≈ 16.6 µM) | 7 (≈ 16.6 µM) | > 100 | –
FC(F)(F)c1cc(NC2CCNCC2)c2c(c1)Sc1cc(-c3cc4ccccc4[nH]3)ccc1N2 [compound 243, 7-(1H-indol-2-yl)-N-(piperidin-4-yl)-3-(trifluoromethyl)-10H-phenothiazin-1-amine] | – | 15 (≈ 31.2 µM) | 39 | –
CN(C)CCCN1c2ccccc2Sc2cc(-c3cc4cc(O)ccc4[nH]3)ccc21 [compound 152, 2-(10-(3-(dimethylamino)propyl)-10H-phenothiazin-3-yl)-1H-indol-5-ol] | > 100 | 13 (≈ 31.3 µM) | > 100 | –
NC1CC(N)CC(C(=O)Nc2cc(C(F)(F)F)cc3c2Nc2ccccc2S3)C1 (stereo not shown) [compound 170, 3,5-diamino-N-(3-(trifluoromethyl)-10H-phenothiazin-1-yl)cyclohexane-carboxamide] | 7 (≈ 16.6 µM) | 3 (≈ 7.1 µM) | 59 | –
NCCNC(=S)Nc1cc(C(F)(F)F)cc2c1Nc1ccccc1S2 [compound 98, 1-(2-aminoethyl)-3-(3-(trifluoro-methyl)-10H-phenothiazin-1-yl)thiourea] | 16 (≈ 41.6 µM) | 8 (≈ 20.8 µM) | > 100 | –
FC(F)(F)c1cc(NCC2CCNCC2)c2c(c1)Sc1ccccc1N2 [compound 173, N-(piperidin-4-ylmethyl)-3-(trifluoromethyl)-10H-phenothiazin-1-amine] | > 100 | 24 (≈ 63.2 µM) | 59 | –
NCCN1CCC(C(=O)Nc2cc(C(F)(F)F)cc3c2Nc2ccccc2S3)CC1 [compound 155, trifluoroacetate] | – | – | – | MIC [1, 7]: 35 µg/mL; MIC [2, 8]: 35 µg/mL; IC50 ([3]; trifluoroacetate): 53 µM
NCCN1c2ccccc2Sc2cc(-c3cc4ccccc4[nH]3)ccc21 [compound 213, 2-(3-(1H-indol-2-yl)-10H-phenothiazin-10-yl)ethanamine] | 23 (≈ 64.3 µM) | 3 (≈ 8.39 µM) | – | –
NC1CC(C(=O)Nc2cc(C(F)(F)F)cc3c2Nc2ccccc2S3)C1 (stereo not shown) [compound 175, 3-amino-N-(3-(trifluoromethyl)-10H-phenothiazin-1-yl)cyclobutane-carboxamide] | 49 (≈ 129 µM) | 24 (≈ 63.3 µM) | 80 | –
CN(C)CCCN1c2ccccc2Sc2cc(-c3cc4cc(CN)ccc4[nH]3)ccc21 [compound 181, 3-(3-(5-(aminomethyl)-1H-indol-2-yl)-10H-phenothiazin-10-yl)-N,N-dimethylpropan-1-amine] | 27 (≈ 63 µM) | 7 (≈ 16.3 µM) | > 100 | –
N#Cc1cc(NC(=O)C2CCCC(N)C2)c2c(c1)Sc1ccccc1N2 (stereo not shown) [compound 119, 3-amino-N-(3-cyano-10H-phenothiazin-1-yl)cyclohexane-carboxamide] | > 100 | 93 (≈ 255 µM) | > 100 | –
NCCN1CCC(Nc2cc3c(c(C(F)(F)F)c2)Nc2ccccc2S3)CC1 [compound 252, N-(1-(2-aminoethyl)piperidin-4-yl)-1-(trifluoromethyl)-10H-phenothiazin-3-amine] | 26 (≈ 63.6 µM) | 7 (≈ 17.1 µM) | 9 | –
N[C@H]1CCC[C@@H](C(=O)Nc2cc(C(F)(F)F)cc3c2Nc2ccccc2S3)C1 [compound 118, (1R,3S)-3-amino-N-(3-(trifluoromethyl)-10H-phenothiazin-1-yl)cyclohexane-carboxamide] | 26 (≈ 63.8 µM) | 13 (≈ 31.9 µM) | 17 | –
NCCN1CCCC(Nc2cc(C(F)(F)F)cc3c2Nc2ccccc2S3)CC1 (stereo not shown) [compound 225, N-(1-(2-aminoethyl)azepan-4-yl)-3-(trifluoromethyl)-10H-phenothiazin-1-amine] | 7 (≈ 16.6 µM) | 3 (≈ 7.1 µM) | > 100 | –

SMILES | MIC [1, 5] [µg/mL] | MIC [2, 6] [µg/mL] | IC50 [3] [µM] | also measured
CN1CCN(CCCN2c3ccccc3Sc3cc(C(F)(F)F)cc(N)c32)CC1 [compound 88, 10-(3-(4-methylpiperazin-1-yl)propyl)-3-(trifluoromethyl)-10H-phenothiazin-1-amine] | > 100 | 27 (≈ 63.9 µM) | > 100 | –
NC1CCCC(CC(=O)Nc2cc(C(F)(F)F)cc3c2Nc2ccccc2S3)C1.O=C(O)C(F)(F)F (stereo not shown) [compound 165, 2-(3-aminocyclohexyl)-N-(3-(trifluoromethyl)-10H-phenothiazin-1-yl)acetamide 2,2,2-trifluoroacetate] | 34 | 17 | – | –
NCCN1CCC(Nc2cc(C(F)(F)F)cc3c2Nc2ccccc2S3)C1 (stereo not shown) [compound 228, N-(1-(2-aminoethyl)pyrrolidin-3-yl)-3-(trifluoromethyl)-10H-phenothiazin-1-amine] | 13 (≈ 33 µM) | 6 (≈ 15.2 µM) | – | –
CN(C)CCCN1c2ccccc2Sc2cc(-c3cc4cc(C#N)ccc4[nH]3)ccc21.O=C(O)C(F)(F)F [compound 151, 2-(10-(3-(dimethylamino)propyl)-10H-phenothiazin-3-yl)-1H-indole-5-carbonitrile 2,2,2-trifluoroacetate salt] | > 100 | 3 | – | –
NC1CC(C(=O)Nc2cc(C(F)(F)F)cc3c2Nc2ccccc2S3)CCN1 (stereo not shown) [compound 139, 2-amino-N-(3-(trifluoromethyl)-10H-phenothiazin-1-yl)piperidine-4-carboxamide] | > 100 | 52 (≈ 127 µM) | – | –
Nc1cc(C(F)(F)F)cc2c1Nc1ccc(-c3cc4ccccc4[nH]3)cc1S2 [compound 205, 7-(1H-indol-2-yl)-3-(trifluoromethyl)-10H-phenothiazin-1-amine] | – | 25 (≈ 62.9 µM) | 364 | –
CN(C)CCCN1c2ccc(-c3cc4ccccc4[nH]3)cc2Sc2cc([N+](=O)[O-])ccc21 [compound 241, 3-(3-(1H-indol-2-yl)-7-nitro-10H-phenothiazin-10-yl)-N,N-dimethylpropan-1-amine] | – | 4 (≈ 9 µM) | – | –
OCC1CCC(Nc2cc(C(F)(F)F)cc3c2Nc2ccccc2S3)CC1 (stereo not shown) [compound 192, (4-((3-(trifluoromethyl)-10H-phenothiazin-1-yl)amino)cyclohexyl) methanol] | – | 6 (≈ 15.2 µM) | – | –
NCCC1CCC(CNc2cc(C(F)(F)F)cc3c2Nc2ccccc2S3)CC1 (stereo not shown) [compound 179, N-((4-(2-aminoethyl)cyclohexyl)methyl)-3-(trifluoromethyl)-10H-phenothiazin-1-amine] | 12 (≈ 28.5 µM) | 3 (≈ 7.12 µM) | – | –
Cc1c(-c2ccc3c(c2)Sc2ccccc2N3CCCN(C)C)[nH]c2ccccc12 [compound 198, N,N-dimethyl-3-(3-(3-methyl-1H-indol-2-yl)-10H-phenothiazin-10-yl)propan-1-amine] | – | 3 (≈ 7.25 µM) | – | –
CC1CCCCN1c1ccc2c(c1)Sc1cc(C(F)(F)F)cc(NC3CCN(CCN)CC3)c1N2.Cl.Cl.Cl (stereo not shown) [compound 314, N-(1-(2-aminoethyl)piperidin-4-yl)-7-(2-methyl-piperidin-1-yl)-3-(trifluoromethyl)-10H-phenothiazin-1-amine hydrochloride] | 8 | – | 30 | MIC [4]: 4 µg/mL
NCC(CCl)Nc1cc(C(F)(F)F)cc2c1Nc1ccccc1S2 (stereo not shown) [compound 178, 3-chloro-N2-(3-(trifluoromethyl)-10H-phenothiazin-1-yl)propane-1,2-diamine] | – | – | – | MIC [1, 7]: 48 µg/mL (≈ 128 µM); MIC [2, 8]: 6 µg/mL (≈ 16.1 µM)
NC1CCCCC1C(=O)Nc1cc(C(F)(F)F)cc2c1Nc1ccccc1S2 (stereo not shown) [compound 113, 2-amino-N-(3-(trifluoromethyl)-10H-phenothiazin-1-yl)cyclohexane-carboxamide] | > 100 | 7 (≈ 17.2 µM) | – | –
Cl.NCCNCCCNc1cc(C(F)(F)F)cc2c1Nc1ccc(Br)cc1S2 [compound 298, N1-(2-aminoethyl)-N3-(7-bromo-3-(trifluoromethyl)-10H-phenothiazin-1-yl)propane-1,3-diamine] | 8 | – | 14 | MIC [4]: 8 µg/mL
CC1CC(C)N1c1ccc2c(c1)Sc1cc(C(F)(F)F)cc(NC3CCN(CCN)CC3)c1N2.Cl (stereo not shown) [compound 337, N-(1-(2-aminoethyl)piperidin-4-yl)-7-(2,4-dimethyl-azetidin-1-yl)-3-(trifluoromethyl)-10H-phenothiazin-1-amine hydrochloride] | 4 | – | 26 | MIC [4]: 2 µg/mL
COc1ccc2c(c1)Sc1cc(-c3cc4ccccc4[nH]3)ccc1N2CCCN(C)C [compound 254, 3-(3-(1H-indol-2-yl)-7-methoxy-10H-phenothiazin-10-yl)-N,N-dimethylpropan-1-amine] | – | 2 (≈ 4.66 µM) | – | –
NCCN1CCOC[C@H]1C(=O)Nc1cc(C(F)(F)F)cc2c1Nc1ccccc1S2.O=C(O)C(F)(F)F [compound 157, (S)-4-(2-aminoethyl)-N-(3-(trifluoro-methyl)-10H-phenothiazin-1-yl)morpholine-3-carboxamide 2,2,2-trifluoroacetate] | > 100 | 71 | – | –
